Data taken from US6063926A, “Substituted oximes as neurokinin antagonists” (Schering Corporation, priority 1998, dated 2000).

Experiments:
NK1 receptor = NK1 receptor (Homo sapiens, UniProt P25103); experiment: neurokinin receptor binding assay, NK1 (Ki); conditions: read-out: Ki (NK1)
Excerpt: (§1) The in vitro and in vivo activity of the compounds of formula I can be determined by various procedures known in the art, such as a test for their ability to inhibit the activity of the NK1 agonist Substance P, an isolated hamster trachea NK2 assay, a test of the effect of NK1 antagonists on Substance P-induced airway microvascular leakage, measurement of NK2 activity in vivo in guinea pigs, measurement of bronchoconstriction due to NKA, and neurokinin receptor binding assay(s). Typical procedures are described in WO96/34857, published Nov. 7, 1996. NK3 activity is determined by following a procedure similar to that described in the literature, e.g., Molecular Pharmacol., 48 (1995), p. 711-716.
(§2) % Inhibition is the difference between the percent of maximum specific binding (MSB) and 100%. The percent of MSB is defined by the following equation, wherein "dpm" is disintegrations per minute: [formula]
(§3) Using the test procedures described above, the following 35 data (Ki) were obtained for exemplified compounds: […]

NK2 receptor = target: T1, NK2 receptor (Homo sapiens, UniProt P21452); experiment: neurokinin receptor binding assay, NK2 (Ki); conditions: read-out: Ki (NK2)
T1 sequence (P21452 1-398): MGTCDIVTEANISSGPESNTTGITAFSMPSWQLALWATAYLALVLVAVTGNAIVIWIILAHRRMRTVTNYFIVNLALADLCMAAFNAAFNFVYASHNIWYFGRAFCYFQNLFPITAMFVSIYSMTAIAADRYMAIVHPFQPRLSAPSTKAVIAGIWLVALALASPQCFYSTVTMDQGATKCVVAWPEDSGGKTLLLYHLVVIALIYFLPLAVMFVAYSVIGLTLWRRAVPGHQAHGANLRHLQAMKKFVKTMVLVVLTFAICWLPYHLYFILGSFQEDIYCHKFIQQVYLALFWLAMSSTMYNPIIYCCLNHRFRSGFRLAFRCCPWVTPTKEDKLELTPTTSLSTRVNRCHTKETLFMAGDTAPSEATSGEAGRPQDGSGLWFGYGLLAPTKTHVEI
Excerpt: as §1, §2, §3

Chain of NK1 receptor (P25103 whole entry): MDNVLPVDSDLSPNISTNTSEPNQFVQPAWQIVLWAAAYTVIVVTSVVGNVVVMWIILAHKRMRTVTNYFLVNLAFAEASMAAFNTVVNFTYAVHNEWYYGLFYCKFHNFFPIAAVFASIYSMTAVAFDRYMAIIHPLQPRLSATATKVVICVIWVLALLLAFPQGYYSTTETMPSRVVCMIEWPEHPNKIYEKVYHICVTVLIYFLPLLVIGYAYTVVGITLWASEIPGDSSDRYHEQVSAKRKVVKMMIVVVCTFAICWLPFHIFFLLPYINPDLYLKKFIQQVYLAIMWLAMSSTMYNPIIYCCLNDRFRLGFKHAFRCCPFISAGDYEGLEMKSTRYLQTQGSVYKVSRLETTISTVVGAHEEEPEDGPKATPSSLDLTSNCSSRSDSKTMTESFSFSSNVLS

SMILES	Ki (NK1 receptor) [nM]	Ki (NK2 receptor) [nM]
CON=C(CN(C)C(=O)c1cc(Cl)cc(Cl)c1)C(CCN1CCC(N2CCCC(CC(=O)N3CCC(OC)CC3)C2=O)CC1)c1ccc(Cl)c(Cl)c1 (stereo not drawn) [Example 25]	0.9	0.7
CON=C(CN(C)C(=O)c1cc(C)cc(Cl)c1)C(CCN1CCC(N2CCCCC2=O)CC1)c1ccc(Cl)c(Cl)c1 (stereo not drawn) [Example 26]	1	1.3
CON=C(CN(C)C(=O)c1cc(C)cc(Cl)c1)C(CCN1CCC(N2CCCC(CC(=O)N(C)C)C2=O)CC1)c1ccc(Cl)c(Cl)c1 (stereo not drawn) [Example 27]	0.7	1.2
CCN(CC(=NOC)C(CCN1CCC(N2CCCC(CC(=O)NC)C2=O)CC1)c1ccc(Cl)c(Cl)c1)C(=O)c1cc(Cl)cc(Cl)c1 (stereo not drawn) [Example 28B]	0.8	1
CCN(CC(=NOC)C(CCN1CCC(N2CCC[C@H](CC(N)=O)C2=O)CC1)c1ccc(Cl)c(Cl)c1)C(=O)c1cc(Cl)cc(Cl)c1 (stereo partly drawn) [Example 28C]	0.4	0.6
CNC(=O)CC1CCCN(C2CCN(CCC(C(CNC(=O)c3cc(Cl)cc(Cl)c3)=NOC)c3ccc(Cl)c(Cl)c3)CC2)C1=O (stereo not drawn) [Example 29B]	5.2	1.3
CON=C(CNC(=O)c1cc(Cl)cc(Cl)c1)C(CCN1CCC(N2CCC[C@H](CC(N)=O)C2=O)CC1)c1ccc(Cl)c(Cl)c1 (stereo partly drawn) [Example 29C]	2.6	0.7
CON=C(CN(C)C(=O)c1cc(C)nc(Cl)c1)C(CCN1CCC(O)(c2ccccc2)CC1)c1ccc(Cl)c(Cl)c1 (stereo not drawn) [Example 30A]	1.4	1.9
Cc1cc(C(=O)N(C)CC(=NOCC(N)=NO)C(CCN2CCC(O)(c3ccccc3)CC2)c2ccc(Cl)c(Cl)c2)cc(Cl)n1 (stereo not drawn) [Example 31]	0.4	1.8
CNC(=O)CC1CCCN(C2CCN(CCC(C(CN(C)C(=O)c3cc(C)cc(C)c3)=NOC)c3ccc(Cl)c(Cl)c3)CC2)C1=O (stereo not drawn) [Example 35]	0.6	0.3
CON=C(CN(C)C(=O)c1cc(Cl)cc(Cl)c1)C(CCN1CCC(c2ccccc2[S+](C)[O-])CC1)c1ccc(Cl)c(Cl)c1 (stereo not drawn) [Example 36]	0.8	1
CON=C(N)CON=C(CN(C)C(=O)c1cc(OC)c(OC)c(OC)c1)C(CCN1CCC(O)(c2ccccc2)CC1)c1ccc(Cl)c(Cl)c1 (stereo not drawn) [Example 37]	0.7	0.7
